# Laboratory results reported in US20030086873A1, “Myocardial imaging agent and preparation method thereof” (priority 2001, published 2003).
# How the values were obtained:
# [1] = Dynamic SPECT imaging and biological distribution in dogs after intravenous injection; format: in vivo; conditions: for Heart biological distribution / Kidneys biological distribution / Liver biological distribution / Lungs biological distribution: i.v.
# Method: Dogs were intravenously injected with [^99mTc(CO)3(MIBI)3]^+ or [^99mTc(MIBI)6][…]at dose of […]. Immediately following injection, dynamic photography for up to 120 min was performed using a Toshiba GCA 7200A two-probe SPECT and a low energy parallel aperture regular collimator. Time—radioactivity curves were also collected for the heart, liver, lungs, and kidneys. Target/non-target radioactivity ratios were calculated, and fall body imaging was performed separately at different times. The biological distributions of the imaging agents in the body were analyzed. Vein blood samples were collected separately at different times, and the dynamics of the blood clearance was analyzed. Flat myocardial imaging was conducted separately at different times, with myocardial tomographic imaging at 120 minutes post injection.
# [2] = Biological distribution in the bodies of Kunming mice after caudal vein injection; format: in vivo
# Method: The complexes [^99mTc(CO)3(OH2)3]^+ and [^99mTc(CO)3(MIBI)3]^+ prepared in Example 1 were separately injected in the caudal vein of Kunming mice. The experiment was conducted on three mice within each time period, and the injection's activity was 925 KBq. The radioactivity of individual organs's tissue was measured at 5, 15, 30, and 60 minutes after the injection, and the results are represented by radioactive uptake rate per gram of tissue.
# The results of the distribution of [^99mTc(CO)3(OH2)3]^+ in the mice's bodies are included in Tables 2; the results for [^99mTc(CO)3(MIBI)3]^+ are presented in Table 3. The value “% ID/g” is the percentage of the injection's total radioactivity that each gram of tissue accounts for i.e., the radioactive uptake rate per gram of tissue, with ID standing for “injected dose.”
compound,measurement,setting,value
"[C-]#[N+]CC(C)(C)OC.[C-]#[N+]CC(C)(C)OC.[C-]#[N+]CC(C)(C)OC.[C-]#[N+]CC(C)(C)OC.[C-]#[N+]CC(C)(C)OC.[C-]#[N+]CC(C)(C)OC.[Tc] [[^99mTc(MIBI)6]^+, reference compound]",Target/Non-Target Uptake Ratio Heart/Kidneys,[1]; 2 Minutes,0.39
same,Target/Non-Target Uptake Ratio Heart/Liver,[1]; 2 Minutes,0.83
same,Target/Non-Target Uptake Ratio Heart/Lungs,[1]; 2 Minutes,2.35
same,Target/Non-Target Uptake Ratio Heart/Kidneys,[1]; 5 Minutes,0.48
same,Target/Non-Target Uptake Ratio Heart/Liver,[1]; 5 Minutes,0.83
same,Target/Non-Target Uptake Ratio Heart/Lungs,[1]; 5 Minutes,2.48
same,Target/Non-Target Uptake Ratio Heart/Kidneys,[1]; 10 Minutes,0.59
same,Target/Non-Target Uptake Ratio Heart/Liver,[1]; 10 Minutes,0.77
same,Target/Non-Target Uptake Ratio Heart/Lungs,[1]; 10 Minutes,2.66
same,Target/Non-Target Uptake Ratio Heart/Kidneys,[1]; 20 Minutes,0.45
same,Target/Non-Target Uptake Ratio Heart/Liver,[1]; 20 Minutes,0.85
same,Target/Non-Target Uptake Ratio Heart/Lungs,[1]; 20 Minutes,2.8
same,Target/Non-Target Uptake Ratio Heart/Kidneys,[1]; 30 Minutes,0.43
same,Target/Non-Target Uptake Ratio Heart/Liver,[1]; 30 Minutes,0.86
same,Target/Non-Target Uptake Ratio Heart/Lungs,[1]; 30 Minutes,2.68
same,Target/Non-Target Uptake Ratio Heart/Kidneys,[1]; 40 Minutes,0.43
same,Target/Non-Target Uptake Ratio Heart/Liver,[1]; 40 Minutes,0.87
same,Target/Non-Target Uptake Ratio Heart/Lungs,[1]; 40 Minutes,2.7
same,Target/Non-Target Uptake Ratio Heart/Kidneys,[1]; 60 Minutes,0.43
same,Target/Non-Target Uptake Ratio Heart/Liver,[1]; 60 Minutes,0.84
same,Target/Non-Target Uptake Ratio Heart/Lungs,[1]; 60 Minutes,2.84
same,Target/Non-Target Uptake Ratio Heart/Kidneys,[1]; 90 Minutes,0.46
same,Target/Non-Target Uptake Ratio Heart/Liver,[1]; 90 Minutes,0.8
same,Target/Non-Target Uptake Ratio Heart/Lungs,[1]; 90 Minutes,2.84
same,Target/Non-Target Uptake Ratio Heart/Kidneys,[1]; 120 Minutes,0.45
same,Target/Non-Target Uptake Ratio Heart/Liver,[1]; 120 Minutes,0.8
same,Target/Non-Target Uptake Ratio Heart/Lungs,[1]; 120 Minutes,2.73
same,Heart biological distribution,[1]; 20 Minutes,3.2 % ID/g
same,Kidneys biological distribution,[1]; 20 Minutes,14.3 % ID/g
same,Liver biological distribution,[1]; 20 Minutes,21.0 % ID/g
same,Lungs biological distribution,[1]; 20 Minutes,6.3 % ID/g
same,Heart biological distribution,[1]; 30 Minutes,3.5 % ID/g
same,Kidneys biological distribution,[1]; 30 Minutes,3.2 % ID/g
same,Liver biological distribution,[1]; 30 Minutes,10.3 % ID/g
same,Lungs biological distribution,[1]; 30 Minutes,6.5 % ID/g
same,Heart biological distribution,[1]; 40 Minutes,2.9 % ID/g
same,Kidneys biological distribution,[1]; 40 Minutes,12.3 % ID/g
same,Liver biological distribution,[1]; 40 Minutes,24.4 % ID/g
same,Lungs biological distribution,[1]; 40 Minutes,6.3 % ID/g
same,Heart biological distribution,[1]; 60 Minutes,3.3 % ID/g
same,Kidneys biological distribution,[1]; 60 Minutes,12.7 % ID/g
same,Liver biological distribution,[1]; 60 Minutes,25.1 % ID/g
same,Lungs biological distribution,[1]; 60 Minutes,5.5 % ID/g
same,Heart biological distribution,[1]; 90 Minutes,3.2 % ID/g
same,Kidneys biological distribution,[1]; 90 Minutes,13.2 % ID/g
same,Liver biological distribution,[1]; 90 Minutes,22.8 % ID/g
same,Lungs biological distribution,[1]; 90 Minutes,6.2 % ID/g
same,Heart biological distribution,[1]; 120 Minutes,3.5 % ID/g
same,Kidneys biological distribution,[1]; 120 Minutes,12.1 % ID/g
same,Liver biological distribution,[1]; 120 Minutes,25.2 % ID/g
same,Lungs biological distribution,[1]; 120 Minutes,5.2 % ID/g
same,Liver time-radioactivity curve relative to the myocardial curve,[1]; in words,higher than the myocardial curve
same,Target/Non-Target Uptake Ratio Heart/Blood,[2]; 5 Minutes,12.80
same,Target/Non-Target Uptake Ratio Heart/Liver,[2]; 5 Minutes,0.94
same,Target/Non-Target Uptake Ratio Heart/Lungs,[2]; 5 Minutes,2.87
same,Target/Non-Target Uptake Ratio Heart/Blood,[2]; 15 Minutes,35.09
same,Target/Non-Target Uptake Ratio Heart/Liver,[2]; 15 Minutes,0.76
same,Target/Non-Target Uptake Ratio Heart/Lungs,[2]; 15 Minutes,6.08
same,Target/Non-Target Uptake Ratio Heart/Blood,[2]; 30 Minutes,89.04
same,Target/Non-Target Uptake Ratio Heart/Liver,[2]; 30 Minutes,0.90
same,Target/Non-Target Uptake Ratio Heart/Lungs,[2]; 30 Minutes,9.07
same,Target/Non-Target Uptake Ratio Heart/Blood,[2]; 60 Minutes,134.15
same,Target/Non-Target Uptake Ratio Heart/Liver,[2]; 60 Minutes,1.04
same,Target/Non-Target Uptake Ratio Heart/Lungs,[2]; 60 Minutes,12.25
